Data taken from US20160102058A1, “FLUORO-PERHEXILINE COMPOUNDS AND THEIR THERAPEUTIC USE” (THE UNIVERSITY COURT OF THE UNIVERSITY OF ABERDEEN, priority 2013, published 2016).

Tests used:
CYP2D6 = target: T1, CYP2D6 (Homo sapiens, UniProt P10635); test: Cytochrome P450 2D6 reaction phenotyping (Bactosomes); assay type: in vitro ADME; conditions: for stability towards CYP2D6 compared with perhexiline (in words): versus perhexiline; for half-life at 5 μM: human, pH 7.4, read-out: T½
T1 construct: purchased Cypex Ltd; host or cells: bacterial membranes (Bactosomes)
Procedure: The stability of fluoroperhexiline derivatives towards CYP2D6-mediated metabolism was measured by determination of the rate of compound disappearance when incubated in the presence CYP2D6 recombinant isoform expression systems (Bactosomes™). The percentage of parent compound remaining at each time point (following correction for any loss in the incubations with the control bactosomes) is calculated. cDNA expressed human CYP450 enzyme preparations co-expressed with human NADPH cytochrome P450 reductase (Bactosomes™) are supplied by Cypex Ltd. Bactosomes™ are stored at −80° C. prior to use. […] Incubations are also performed using control bactosomes (no P450 enzymes present) to reveal any non-enzymatic degradation. The final incubation volume is 25 μL. A compound known to be metabolised specifically by CYP2D6 isoform is used as a control compound. Each compound is incubated singly for 0, 5, 15, 30 and 45 min with each isoform. The reactions are stopped by the addition of 50 μL methanol containing internal standard at the appropriate time points. The incubation plates are centrifuged at 2500 rpm for 20 min at 4° C. to precipitate the protein. Following protein precipitation, the sample supernatants are combined in cassettes of up to four compounds and analysed using Cyprotex generic LC-MS/MS conditions. The natural logarithm of the peak area ratio (which has been corrected for any loss in the incubations with the control bactosomes) is plotted against time and the gradient of the line determined. Elimination Rate Constant (k)=(−Gradient).

cardiac CPT-1 = target: T2, cardiac CPT-1 (Rattus norvegicus, UniProt Q63704); test: Carnitine palmitoyl transferase (M-CPT-1) inhibition assay, rat heart mitochondria; assay type: biochemical
T2 construct: 50 μL of mitochondrial suspension, suitably diluted in Assay Buffer; from tissue; host or cells: rat heart mitochondria (Sprague-Dawley)
T2 sequence (Q63704 1-772): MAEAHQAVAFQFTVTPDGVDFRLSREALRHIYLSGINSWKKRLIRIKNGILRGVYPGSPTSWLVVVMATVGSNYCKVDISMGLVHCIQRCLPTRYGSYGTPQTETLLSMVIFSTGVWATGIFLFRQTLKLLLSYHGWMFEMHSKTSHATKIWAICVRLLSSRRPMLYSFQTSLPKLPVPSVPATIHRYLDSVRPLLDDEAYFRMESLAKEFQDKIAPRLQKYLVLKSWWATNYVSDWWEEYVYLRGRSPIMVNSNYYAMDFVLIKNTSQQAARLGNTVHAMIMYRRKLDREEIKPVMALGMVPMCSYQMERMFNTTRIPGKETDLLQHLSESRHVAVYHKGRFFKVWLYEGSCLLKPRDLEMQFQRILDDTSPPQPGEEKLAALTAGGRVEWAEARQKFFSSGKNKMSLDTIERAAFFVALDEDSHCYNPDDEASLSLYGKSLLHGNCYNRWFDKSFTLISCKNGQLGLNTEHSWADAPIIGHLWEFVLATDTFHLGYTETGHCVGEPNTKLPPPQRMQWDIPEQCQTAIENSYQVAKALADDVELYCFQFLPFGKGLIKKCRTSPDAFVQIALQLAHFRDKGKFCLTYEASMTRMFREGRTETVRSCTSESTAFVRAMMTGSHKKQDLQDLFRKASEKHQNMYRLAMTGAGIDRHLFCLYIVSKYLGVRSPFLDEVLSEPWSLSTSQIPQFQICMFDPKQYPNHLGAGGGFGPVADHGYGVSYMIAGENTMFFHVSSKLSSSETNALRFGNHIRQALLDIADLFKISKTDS
Procedure: Male Sprague-Dawley rats (8-10 weeks of age) were purchased from Charles River and maintained for 10 days under standard housing and feeding conditions. All isolation procedures were performed on ice using pre-cooled solutions and instruments. Rats (n=4 per mitochondrial isolation batch) were sacrificed by CO2 asphyxiation, and hearts were removed and rinsed in 3 changes of ice-cold phosphate buffered saline (PBS) to remove blood. Hearts were finely minced with scissors, and homogenised in 5 volumes/wt of a buffer containing 300 mM sucrose, 5 mM MOPS, 1 mM EGTA, 5 mM K2HPO4, 0.1% BSA, pH 7.4, using a teflon Potter homogenizer. The homogenate was centrifuged at 1500×g for 10 min, the supernatant was collected and centrifuged at 9800×g for 5 min, the mitochondrial pellet was washed and centrifuged twice in the same buffer, and then re-suspended in Assay Buffer (150 mM sucrose, 60 mM KCl, 25 mM Tris/HCl, 1 mM EDTA, 0.1 mM 4,4′-dithiopyridine, 1.3 mg/mL lipid-depleted BSA, pH 6.8). Mitochondrial suspensions were kept on ice and used fresh for each set of experiments. A spectrophotometric assay for M-CPT-1 was used, which measured the decrease in palmitoyl CoA concentration as it was utilised by the enzyme to produce palmitoylcarnitine, according to the following reaction: palmitoyl CoA+L-carnitine→palmitoylcarnitine+CoA The disappearance of palmitoyl CoA was monitored as a loss of UV absorbance at 324 nm. Enzyme reactions (1.0 mL final volume, in a spectrophotometer cuvette) contained: • 890 μL of Assay Buffer (see above). • 50 μL of mitochondrial suspension, suitably diluted in Assay Buffer. • 20 μL of 50-fold concentrated inhibitor in suitable vehicle, or vehicle alone. • 20 μL of 2 mM palmitoyl CoA (final concentration 40 μM). • 20 μL of 20 mM L-carnitine (final concentration 400 μM). […] Tubes were incubated at 37° C., and UV absorbance was recorded for 5 min. […] The protein concentration of the mitochondrial suspension was determined using the Bradford assay reagent. […]

[1] = recombinant CYP2D6 Bactosomes, 5 μM test compound

T1 sequence (P10635 whole entry): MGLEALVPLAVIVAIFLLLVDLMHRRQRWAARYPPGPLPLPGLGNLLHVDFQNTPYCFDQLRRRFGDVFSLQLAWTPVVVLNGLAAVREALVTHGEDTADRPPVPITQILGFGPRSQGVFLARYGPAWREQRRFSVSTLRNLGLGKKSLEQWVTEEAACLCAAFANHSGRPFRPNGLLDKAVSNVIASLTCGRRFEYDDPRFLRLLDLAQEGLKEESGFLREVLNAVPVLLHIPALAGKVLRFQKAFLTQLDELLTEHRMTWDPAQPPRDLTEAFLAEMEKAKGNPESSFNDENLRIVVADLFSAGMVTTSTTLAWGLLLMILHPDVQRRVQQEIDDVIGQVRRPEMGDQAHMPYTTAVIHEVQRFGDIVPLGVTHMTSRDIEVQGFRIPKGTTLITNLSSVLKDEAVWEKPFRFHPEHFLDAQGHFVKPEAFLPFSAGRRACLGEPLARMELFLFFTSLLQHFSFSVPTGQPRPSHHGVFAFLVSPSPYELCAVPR

| T½ (CYP2D6; [1]) | IC50 (cardiac CPT-1) | Structure (SMILES) | stability towards CYP2D6 compared with perhexiline (in words) (CYP2D6) | half-life at 5 μM (CYP2D6; [1]) |
| --- | --- | --- | --- | --- |
| 104 min | 35 µM | FC1(F)CCC(C(CC2CCCCN2)C2CCCCC2)CC1 (mixture of isomers) [FPER-001, 2-(2-Cyclohexyl-2-(4,4-difluorocyclohexyl)ethyl)piperidine] | substantial increase in stability towards CYP2D6 | – |
| – | 85 µM | FC1CCC(C(CC2CCCCN2)C2CCCCC2)CC1 (mixture of isomers) [FPER-003, 2-(2-Cyclohexyl-2-(4-fluorocyclohexyl)ethyl)piperidine] | no increase in stability | 16 min |

| Structure (SMILES) | T½ (CYP2D6; [1]) | IC50 (cardiac CPT-1) | stability towards CYP2D6 compared with perhexiline (in words) (CYP2D6) | half-life at 5 μM (CYP2D6; [1]) |
| --- | --- | --- | --- | --- |
| C1CCC(C(CC2CCCCN2)C2CCCCC2)CC1 (centres unmarked) [Perhexiline, 2-(2,2-dicyclohexylethyl)piperidine] | – | 18 µM | – | 14 min |
